Results as given in US20130040317A1, “CELL LINES COMPRISING ENDOGENOUS TASTE RECEPTORS AND THEIR USES” (THE UNIVERSITY OF NORTH CAROLINA AT CHAPEL HILL, priority 2011, published 2013).
Where two headings read alike, the source gives them in different places.

Columns and labels:
Type in all cases: cell-based, human
MB9812 cells = experiment: FLIPR calcium flux assay, tastant response in MB9812 cells
Description: Calcium flux assays were performed as previously described in Strachan et al., “Ribosomal S6 kinase 2 directly phosphorylates the 5-hydroxytryptamine 2A (5-HT2A) serotonin receptor, thereby modulating 5-HT2A signaling,” J Biol Chem 284:5557-5573 (2009). MB9812, NCI-H520 or NCI-H522 cells were trypsinized, counted, and seeded onto clear-bottomed 96 well plates (Greiner Bio-One; Monroe, N.C.) pre-coated with poly-D-lysine, at a density of 7.5×10^5 cells per well. After a 24 hour incubation, media was removed and replaced with a […] assay buffer (20 mM HEPES, 1× HBSS, 2.5 mM probenecid, and Ca^2+ assay dye, pH 7.4) (FLIPR® Calcium Assay Kit; Molecular Device Corp, Sunnyvale, Calif.). After a 1-hour incubation at 37° C., during which the cells were allowed to take up the dye, fluorescence responses of cells were measured with a FLIPRTETRA (Molecular Device Corp; Sunnyvale, Calif.) device upon the addition of variable concentrations of tastant, or vehicle, in the presence of assay buffer (20 mM HEPES, pH 7.4, 1× Hanks Balanced Salt [Invitrogen; Carlsbad, Calif.] and 2.5 mM probenecid). After data acquisition, a subsequent addition of […] was injected into each well, and fluorescence was measured again. Net peak responses to tastants were normalized to net peak responses to thapsigargin. Responses were compared with that of wild-type control MB9812, NCI-H520 or NCI-H522 cells. Statistical and graphical analyses were performed using Prism v. 5.0b (GraphPad Software; La Jolla, Calif.).
MB9812, NCI-H520 and NCI-H522 cells were selected for taste stimulation. The cells were loaded with fluorescent calcium-sensitive dye, treated with a variety of tastants, and monitored for intracellular calcium release with a FLIPR imaging device.

NCI-H520 cells = experiment: FLIPR calcium flux assay, tastant response in NCI-H520 cells
Description: (§1) Calcium flux assays were performed as previously described in Strachan et al., “Ribosomal S6 kinase 2 directly phosphorylates the 5-hydroxytryptamine 2A (5-HT2A) serotonin receptor, thereby modulating 5-HT2A signaling,” J Biol Chem 284:5557-5573 (2009). MB9812, NCI-H520 or NCI-H522 cells were trypsinized, counted, and seeded onto clear-bottomed 96 well plates (Greiner Bio-One; Monroe, N.C.) pre-coated with poly-D-lysine, at a density of 7.5×10^5 cells per well. After a 24 hour incubation, media was removed and replaced with a […] assay buffer (20 mM HEPES, 1× HBSS, 2.5 mM probenecid, and Ca^2+ assay dye, pH 7.4) (FLIPR® Calcium Assay Kit; Molecular Device Corp, Sunnyvale, Calif.). After a 1-hour incubation at 37° C., during which the cells were allowed to take up the dye, fluorescence responses of cells were measured with a FLIPRTETRA (Molecular Device Corp; Sunnyvale, Calif.) device upon the addition of variable concentrations of tastant, or vehicle, in the presence of assay buffer (20 mM HEPES, pH 7.4, 1× Hanks Balanced Salt [Invitrogen; Carlsbad, Calif.] and 2.5 mM probenecid). After data acquisition, a subsequent addition of […] was injected into each well, and fluorescence was measured again. Net peak responses to tastants were normalized to net peak responses to thapsigargin. […]

NCI-H522 cells = experiment: FLIPR calcium flux assay, tastant response in NCI-H522 cells
Description: as §1

Structure (SMILES) | cell response to tastant (increase in intracellular calcium, FLIPR calcium flux) (MB9812 cells) | cell response to tastant (increase in intracellular calcium, FLIPR calcium flux) (NCI-H520 cells) | cell response to tastant (increase in intracellular calcium, FLIPR calcium flux) (MB9812 cells; listed as denatonium B) | cell response to tastant (increase in intracellular calcium, FLIPR calcium flux) (NCI-H522 cells)
OC[C@H]1O[C@@](CO)(O[C@H]2O[C@H](CO)[C@@H](O)[C@H](O)[C@H]2O)[C@@H](O)[C@@H]1O [sucrose] | response |  |  | 
C=C1C[C@@]23CC[C@H]4[C@@](C)(CCC[C@@]4(C)C(=O)O[C@@H]4O[C@H](CO)[C@@H](O)[C@H](O)[C@H]4O)[C@@H]2CC[C@]1(O[C@@H]1O[C@H](CO)[C@@H](O)[C@H](O[C@@H]2O[C@H](CO)[C@@H](O)[C@H](O)[C@H]2O)[C@H]1O[C@@H]1O[C@H](CO)[C@@H](O)[C@H](O)[C@H]1O)C3 [Rebaudioside A] |  | respond |  | 
O=C(CO)[C@@H](O)[C@H](O)[C@H](O)CO [fructose] | response |  |  | 
CC[N+](CC)(CC(=O)Nc1c(C)cccc1C)Cc1ccccc1 [denatonium-B, denatonium benzoate] | respond | respond | response | respond
